These results are taken from PubChem BioAssay AID504930 (The Scripps Research Institute Molecular Screening Center, 2011).

For this test, the system named is granule cell progenitor proliferation, radioactive thymidine incorporation. The test is described as follows: inhibition of GCP proliferation, late-stage follow-up, counter-screen for Wee1 degradation inhibitor project, cell-based, radioactive thymidine incorporation (AID 504930). A general note: Counterscreens check selectivity or assay interference.

The structures appear in SMILES notation.

Take `c1ccc2[nH]c(CNc3nc(N4CCOCC4)nc4c3ncn4-c3ccsc3)nc2c1`: the IC50 was 11.6 nM.
Then `O=[N+]([O-])c1cccc2[nH]c(CNc3nc(N4CCOCC4)nc4c3ncn4-c3ccsc3)nc12`, with 4.61 nM.

A word on the IC50: it is the concentration that inhibits the measured activity by half.
